Here are results for 31 molecules from patent US7485641B2, “Substituted 3-amino-pyrrolidino-4-lactams” (Pfizer, Inc., priority 2006, dated 2009).

Counter-ions that a name gives are not always drawn. Like-named read-outs stand apart in the source and are kept apart here.

In the assay the target is T1, DPP-IV (Homo sapiens, UniProt P27487).
T1 construct: purchased Enzyme Systems Products SPE-01
Nature of the assay: In vitro assay for dipeptidyl peptidase inhibition. The class given is biochemical. As to conditions: for DPP-IV Percent Inhibition at 300 nM / inhibition at 0.3 µM: at 300 nM; for inhibition at 0.3 µM: read-out: DPP-IV Percent Inhibition at 300 nM.

Setting [1] is: Examples 156-162, n-value in brackets, IC50's or percent inhibition at 300 nM, read-out: DPP-IV inhibition.
[2] abbreviates: n-value given in brackets, read-out: DPP-IV IC50.

T1 sequence (P27487 whole entry, species assumed): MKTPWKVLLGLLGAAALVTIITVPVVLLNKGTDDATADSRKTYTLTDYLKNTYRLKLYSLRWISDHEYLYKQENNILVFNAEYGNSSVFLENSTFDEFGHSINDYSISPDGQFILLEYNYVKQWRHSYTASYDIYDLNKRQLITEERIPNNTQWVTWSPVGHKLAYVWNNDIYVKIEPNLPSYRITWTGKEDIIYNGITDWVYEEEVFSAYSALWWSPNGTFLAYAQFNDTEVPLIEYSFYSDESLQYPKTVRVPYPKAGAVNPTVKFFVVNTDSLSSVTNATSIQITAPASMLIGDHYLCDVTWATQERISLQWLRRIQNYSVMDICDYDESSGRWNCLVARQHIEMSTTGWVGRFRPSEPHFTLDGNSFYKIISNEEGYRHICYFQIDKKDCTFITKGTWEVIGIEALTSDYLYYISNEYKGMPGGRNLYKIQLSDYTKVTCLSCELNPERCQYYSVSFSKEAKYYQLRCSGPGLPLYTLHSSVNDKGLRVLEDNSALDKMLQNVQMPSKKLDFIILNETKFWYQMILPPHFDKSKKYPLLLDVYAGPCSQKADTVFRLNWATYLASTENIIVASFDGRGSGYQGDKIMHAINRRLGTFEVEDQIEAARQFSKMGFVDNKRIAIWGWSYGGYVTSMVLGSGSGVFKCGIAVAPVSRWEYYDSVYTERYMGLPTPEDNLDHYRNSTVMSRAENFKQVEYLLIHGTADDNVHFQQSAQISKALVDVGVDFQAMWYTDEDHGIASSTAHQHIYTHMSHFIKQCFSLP

In the case of `COc1ccc2[nH]c(C(=O)N3C[C@H](N)[C@@H](N4CCCCC4=O)C3)cc2c1` [Example 162, 1-[(3S,4S)-4-Amino-1-(5-methoxy-1H-indole-2-carbonyl)-pyrrolidin-3-yl]-piperidin-2-onehydrochloride], under setting [1], the IC50 is 1460 nM.
Regarding `CCOc1ncc2c(n1)CCN(c1ncnc(N3C[C@H](N)[C@@H](N4CCCCC4=O)C3)n1)C2.O=C(O)C(F)(F)F` [Example 72, 1-((3S,4S)-4-Amino-1-(4-(2-ethoxy-7,8-dihydropyrido[4,3-d]pyrimidin-6(5H)-yl)-1,3,5-triazin-2-yl)pyrrolidin-3-yl)piperidin-2-onetrifluoroacetate], the “DPP-IV Percent Inhibition at 300 nM” value (n-value given in brackets) is 13.1%(4).
Turning to `COc1ccc(Oc2ccc3c(N4C[C@H](N)[C@@H](N5CCCCC5=O)C4)ncnc3c2)cc1` [Example 129, 1-((3S,4S)-4-amino-1-(7-(4-methoxyphenoxy)quinazolin-4-yl)pyrrolidin-3-yl)piperidin-2-one], the IC50 under setting [2] amounted to 61.5 nM.
On the same count and under the same terms, under `N[C@H]1CN(c2ncnc(N3CC[C@H](F)C3)n2)C[C@@H]1N1CCCCC1=O` [Example 25, 1-((3S,4S)-4-Amino-1-(4-((S)-3-fluoropyrrolidin-1-yl)-1,3,5-triazin-2-yl)pyrrolidin-3-yl)piperidin-2-onetrifluoroacetate] stands 80.2 nM; under `N[C@H]1CN(c2ncnc3cc(Sc4cccc(F)c4)ccc23)C[C@@H]1N1CCCCC1=O` [Example 130, 1-((3S,4S)-4-amino-1-(7-(3-fluorophenylthio)quinazolin-4-yl)pyrrolidin-3-yl)piperidin-2-oneformate], 60.5 nM.
As to `COc1cc2c(cc1OC)CN(c1ncnc(N3C[C@H](N)[C@@H](N4CCCCC4=O)C3)n1)CC2.O=C(O)C(F)(F)F` [Example 59, 1-((3S,4S)-4-Amino-1-(4-(6,7-dimethoxy-3,4-dihydroisoquinolin-2(1H)-yl)-1,3,5-triazin-2-yl)pyrrolidin-3-yl)piperidin-2-onetrifluoroacetate], the “DPP-IV Percent Inhibition at 300 nM” value (n-value given in brackets) is 44.3%(4).
For `CC1(O)CCN(c2ncnc(N3C[C@H](N)[C@@H](N4CCCCC4=O)C3)n2)CC1` [Example 35, 1-{(3S,4S)-4-Amino-1-[4-(4-hydroxy-4-methyl-piperidin-1-yl)-[1,3,5]triazin-2-yl]-pyrrolidin-3-yl}-piperidin-2-onetrifluoroacetate], the IC50 under setting [2] was 558 nM.
On the same count and under the same terms, the value for `N[C@H]1CN(c2ncnc(-c3ccccc3)n2)C[C@@H]1N1CC(F)(F)CCC1=O` [Example 84, 1-((3S,4S)-4-amino-1-(4-phenyl-1,3,5-triazin-2-yl)pyrrolidin-3-yl)-5,5-difluoropiperidin-2-one trifluoroacetate] was 38.7 nM; that for `N[C@H]1CN(c2cc(NC3CC3)ncn2)C[C@@H]1N1CCCC1=O` [Example 74, 1-((3S,4S)-4-Amino-1-(6-cyclopropylamino-pyrimidin-4-yl)pyrrolidin-3-yl)pyrrolidin-2-onetrihydrochloride] was 1400 nM.
One may read the inhibition as the percentage by which the read-out fell short of the control. As to `CC(C)S(=O)(=O)c1ccc2c(N3C[C@H](N)[C@@H](N4CCCCC4=O)C3)ncnc2c1` [Example 138, 1-((3S,4S)-4-amino-1-(7-(isopropylsulfonyl)quinazolin-4-yl)pyrrolidin-3-yl)piperidin-2-one trifluoroacetate], the inhibition at 0.3 µM (n-value given in brackets) turned out to be 24.1%.
With `N[C@H]1CN(c2cc(N3CC(F)C3)ncn2)C[C@@H]1N1CCCC1=O` [Example 48, 1-((3S,4S)-4-Amino-1-(6-(3-fluoroazetidin-1-yl)pyrimidin-4-yl)pyrrolidin-3-yl)pyrrolidin-2-onedihydrochloride], the IC50 under setting [2] was determined as 1740 nM.
Still for that read-out and setting: the value for `N[C@H]1CN(c2cc(N3CCc4[nH]ncc4C3)ncn2)C[C@@H]1N1CCCC1=O` [Example 66, 1-((3S,4S)-4-Amino-1-(6-(6,7-dihydro-1H-pyrazolo[4,3-c]pyridin-5(4H)-yl)pyrimidin-4-yl)pyrrolidin-3-yl)pyrrolidin-2-onedihydrochloride] was 395 nM.
Same read-out and setting: the value for `N[C@H]1CN(c2ncnc(N3CCS(=O)(=O)CC3)n2)C[C@@H]1N1CCCCC1=O` [Example 68, 1-{(3S,4S)-4-Amino-1-[4-(1,1-dioxo-6-thiomorpholin-4-yl)-[1,3,5]triazin-2-yl]-pyrrolidin-3-yl}-piperidin-2-onetrifluoroacetate] was 141 nM; that for `CC(C)Sc1ccc2c(N3C[C@H](N)[C@@H](N4CCCCC4=O)C3)ncnc2c1` [Example 137, 1-((3S,4S)-4-amino-1-(7-(isopropylthio)quinazolin-4-yl)pyrrolidin-3-yl)piperidin-2-one] was 116 nM; that for `CCc1nc(N2C[C@H](N)[C@@H](N3CCCCC3=O)C2)cc(N2CCC(F)(F)C2)n1` [Example 15, 1-((3S,4S)-4-amino-1-(6-(3,3-difluoropyrrolidin-1-yl)-2-ethylpyrimidin-4-yl)pyrrolidin-3-yl)piperidin-2-one] was 39.8 nM.
Still for that read-out and setting: the value for `N[C@H]1CN(c2ncnc3cc(OCC(F)(F)F)ccc23)C[C@@H]1N1CCCCC1=O` [Example 122, 1-((3S,4S)-4-amino-1-(7-(2,2,2-trifluoroethoxy)quinazolin-4-yl)pyrrolidin-3-yl)piperidin-2-one] was 148 nM; that for “N-((R)-1-{4-[(3S,4S)-3-Amino-4-(2-oxo-piperidin-1-yl)-pyrrolidin-1-yl]-[1,3,5]triazin-2-yl}-pyrrolidin-3-yl)-acetamidetrifluoracetate [Example 43]” was 227 nM; that for `N[C@H]1CN(c2ncnc(N3CC[C@@H](O)C3)n2)C[C@@H]1N1CCCCC1=O` [Example 38, 1-((3S,4S)-4-Amino-1-(4-((R)-3-hydroxypyrrolidin-1-yl)-1,3,5-triazin-2-yl)pyrrolidin-3-yl)piperidin-2-onetrifluoroacetate] was 205 nM.
Regarding `CSc1ccc(Sc2ccc3c(N4C[C@H](N)[C@@H](N5CCCCC5=O)C4)ncnc3c2)cc1` [Example 132], the IC50 under setting [2] came to 720 nM.
In the case of `N[C@H]1CN(C(=O)c2cc3cc(Cl)ccc3[nH]2)C[C@@H]1N1CCCCC1=O` [Example 161, 1-[(3S,4S)-4-Amino-1-(5-chloro-1H-indole-2-carbonyl)-pyrrolidin-3-yl]-piperidin-2-onehydrochloride], the IC50 under setting [1] was 1160 nM.
For `N[C@H]1CN(c2cc(N3CCc4nocc4C3)nc(C(F)(F)F)n2)C[C@@H]1N1CCCCC1=O` [Example 78, 1-((3S,4S)-4-amino-1-(6-(6,7-dihydroisoxazolo[4,3-c]pyridin-5(4H)-yl)-2-(trifluoromethyl)pyrimidin-4-yl)pyrrolidin-3-yl)piperidin-2-one], under setting [2], the IC50 was 39.4 nM.
For the molecule `CC(Oc1cc(N2C[C@H](N)[C@@H](N3CCCCC3=O)C2)ncn1)C(F)(F)F.O=C(O)C(F)(F)F` (stereo partly drawn) [Example 93, 1-((3S,4S)-4-Amino-1-(6-(1,1,1-trifluoropropan-2-yloxy)pyrimidin-4-yl)pyrrolidin-3-yl)piperidin-2-onetrifluoroacetate], the “DPP-IV Percent Inhibition at 300 nM” value (n-value given in brackets) was 13.8%(4).
Take `N[C@H]1CN(c2cc(N3CCc4nocc4C3)nc(C(F)(F)F)n2)C[C@@H]1N1CC(F)(F)CCC1=O` [Example 77, 1-{(3S,4S)-4-amino-1-[6-(6,7-dihydro-4H-isoxazolo[4,3-c]pyridin-5-yl)-2-trifluoromethyl-pyrimidin-4-yl]-pyrrolidin-3-yl}-5,5-difluoro-piperidin-2-one]: the IC50 under setting [2] came to 33.5 nM.
`N[C@H]1CN(c2ncnc3cc(OS(=O)(=O)c4ccc(F)c(F)c4)ccc23)C[C@@H]1N1CCCCC1=O` [Example 144, 4-((3S,4S)-3-amino-4-(2-oxopiperidin-1-yl)pyrrolidin-1-yl)quinazolin-7-yl 3,4-difluorobenzenesulfonate]: the inhibition at 0.3 µM (n-value given in brackets) is 41%.
For the molecule `Cc1nc(N2CC[C@H](F)C2)cc(N2C[C@H](N)[C@@H](N3CC(F)(F)CCC3=O)C2)n1` [Example 26, 1-((3S,4S)-4-amino-1-(6-((S)-3-fluoropyrrolidin-1-yl)-2-methylpyrimidin-4-yl)pyrrolidin-3-yl)-5,5-difluoropiperidin-2-one], the IC50 under setting [2] came to 37.3 nM.
For the molecule `N#Cc1ccccc1OC1CCN(c2ncnc(N3C[C@H](N)[C@@H](N4CCCCC4=O)C3)n2)CC1` [Example 37, 2-(1-(4-((3S,4S)-3-Amino-4-(2-oxopiperidin-1-yl)pyrrolidin-1-yl)-1,3,5-triazin-2-yl)piperidin-4-yloxy)benzonitriletrifluoroacetate], under setting [2], the IC50 was found to be 109 nM.
In the case of `N[C@H]1CN(c2ncnc(N3C[C@@H](F)[C@@H](F)C3)n2)C[C@@H]1N1CCCCC1=O` [Example 28, 1-((3S,4S)-4-Amino-1-(4-((3R,4S)-3,4-difluoropyrrolidin-1-yl)-1,3,5-triazin-2-yl)pyrrolidin-3-yl)piperidin-2-onetrifluoroacetate], the IC50 under setting [2] was found to be 67.8 nM.
In the case of `N[C@H]1CN(c2ncnc3cc(OS(=O)(=O)c4ccc(F)cc4)ccc23)C[C@@H]1N1CCCCC1=O` [Example 142, 4-Fluoro-benzenesulfonic acid 4-[(3S,4S)-3-amino-4-(2-oxo-piperidin-1-yl)-pyrrolidin-1-yl]-quinazolin-7-ylester], for the setting “n-value given in brackets”, the “DPP-IV Percent Inhibition at 300 nM” value is 47/3%(4).
Regarding `CS(=O)(=O)c1ccccc1S(=O)(=O)Oc1ccc2c(N3C[C@H](N)[C@@H](N4CCCCC4=O)C3)ncnc2c1` [Example 96, 4-((3S,4S)-3-amino-4-(2-oxopiperidin-1-Vl)pyrrolidin-1-yl)quinazolin-7-yl 2-(methylsulfonyl)benzenesulfonate], the IC50 under setting [2] was found to be 1.99 nM.
Consider `CCSc1nc(N2C[C@H](N)[C@@H](N3CCCCC3=O)C2)cc(N2CCC(F)(F)C2)n1` [Example 20, 1-((3S,4S)-4-amino-1-(6-(3,3-difluoropyrrolidin-1-yl)-2-(ethylthio)pyrimidin-4-yl)pyrrolidin-3-yl)piperidin-2-one], for which the IC50 under setting [2] amounted to 82.5 nM.
On to `N[C@H]1CN(c2cc(N3CCc4ccccc4CC3)ncn2)C[C@@H]1N1CCCC1=O` [Example 61, 1-((3S,4S)-4-Amino-1-(6-(1,2,4,5-tetrahydrobenzo[d]azepin-3-yl)pyrimidin-4-yl)pyrrolidin-3-yl)pyrrolidin-2-onehydrochloride], for which the IC50 under setting [2] is 787 nM.
